The results in this text go back to article PMC11796312, “Multifunctional, Fluorene‐Based Modulator of Cholinergic and GABAergic Neurotransmission as a Novel Drug Candidate for Palliative Treatment of Alzheimer's Disease” (Angewandte Chemie (International Ed. in English), 2024).

“Also recorded” adds a separate entry of the source.

One data set has as its system SIM-A9 cells. The data set is described as follows: LC-MS determination of total MDA, SIM-A9. Conditions: all time intervals. It counts as cell-based, mouse.
The next data set relates to SH-SY5Y cells. Kind of data set: Intracellular RONS, DCFH-DA probe, SH-SY5Y. The conditions noted are these: IC50, ½ IC50, ¼ IC50, 1, 4, 24 h. It counts as cell-based, human.
Data set [1] concerns mice. The data set is described as follows: Elevated plus maze (EPM). Type of data set: in vivo. The conditions noted are these: vs control. How it is done:
(§1) Animals and housing conditions
(§2) In all pharmacodynamic in vivo experiments, except for the Barnes maze (BM) task, adult male Albino Swiss (CD-1) mice weighing between 18 and 22 g and purchased from the Animal Breeding Farm of the Faculty of Pharmacy, Jagiellonian University Medical College were used. In BM task, C57BL/6J mice of the same weight (Animalab, Poland) were used.
Animals were housed in cages (10 mice per cage) at a constant temperature of 22 ± 2 °C, humidity of 55 ± 10%, and a light/dark (12:12) cycle (lights on at 7 AM). Before the experiments, the animals had unlimited access to food and water. Specified conditions for the maintenance of mice were ensured throughout the experiments, including tree bedding (Transwior, Poland) and cage enrichment (tunnels, nesting material, wooden igloos, etc.). For the behavioral test, the mice were selected randomly; each group consisted of 7-12 mice. The experiments were performed between 9 AM and 3 PM. After in vivo tests, the animals were […]
Ethical approval statement
The procedures for the maintenance and treatment of laboratory animals were approved by the 1st Local Ethics Committee of the Jagiellonian University in Krakow (Approvals No. […]
(§3) of the closed arms. […] The following parameters were measured in this test: time spent in open arms of the EPM device and the number of entries to open arms. […]

Data set [2] deals with mice. Kind of data set: Forced swim test (FST). It counts as in vivo. Conditions: 1 mg/kg i.p., vs control. As for the experimental part:
as §1, §2
Animals were housed in cages (10 mice per cage) at a constant temperature of 22 ± 2 °C, humidity of 55 ± 10%, and a light/dark (12:12) cycle (lights on at 7 AM). Before the experiments, the animals had unlimited access to food and water. […]
Briefly, mice were individually placed in a glass cylinder (25 cm high, 10 cm in diameter) containing 11 cm of water maintained at 23–25 °C and were left therein for 6 min. […] The total duration of immobility was measured during the final 4 min of a 6-min test session. […]
The four-plate apparatus (FPT; Bioseb, France) consists of a cage (25 × 18 × 16 cm) that is floored with four rectangular metal plates (11 × 8 cm). […] The number of punished crossings was counted […]
as §3

For `O[C@H](CNCC1CC1)[C@H](Cc1ccccc1)NC1c2ccccc2-c2ccccc21` [Compound 6], the “increase in intracellular level of MDA” value in the data set on SIM-A9 cells was “no significant increase”. In addition, the “increase in intracellular RONS” value in the data set with SH-SY5Y cells is given as “no significant increase”. The “time spent in open arms” value in the data set on mice [1] (0.1 and 1 mg/kg i.p.) is reported as “prolonged time spent in open arms; also recorded: significant prolongation of time spent in the open arms”. In addition, in the data set with mice [1] (1 and 10 mg/kg i.p.), the “number of open arm entries” value is “increased the number of open arm entries; also recorded: increased number of entries into the open arms”. The duration of immobility result in the data set on mice [2] is given as “reduced immobility; also recorded: mild yet statistically significant antidepressant activity”.
